Values after ≈ are worked out from the molar mass of the structure shown. Active and inactive are the calls of the source. No cut-off for these calls is given here.
Tests used:
Assay type in all cases: functional
Klebsiella pneumoniae [1] = experiment: Antibacterial activity against Klebsiella pneumoniae incubated for overnight by microdilution method
Staphylococcus aureus [2] = experiment: Antibacterial activity against methicillin resistant Staphylococcus aureus MRSA090 at 25 ug/ml after 24 hrs by agar well diffusion method; conditions: MRSA090, 24 h, read-out: DIZ
Bacillus subtilis [3] = experiment: Antibacterial activity against Bacillus subtilis incubated for overnight by microdilution method
Staphylococcus aureus [4] = experiment: Antibacterial activity against methicillin resistant Staphylococcus aureus MRSA090 incubated for overnight by microdilution method
Staphylococcus aureus [5] = experiment: Antibacterial activity against methicillin resistant Staphylococcus aureus MRSA090 at 100 ug/ml after 24 hrs by agar well diffusion method; conditions: MRSA090, 24 h, read-out: DIZ
Staphylococcus aureus [6] = experiment: Antibacterial activity against Staphylococcus aureus incubated for overnight by microdilution method
Escherichia coli [7] = experiment: Antibacterial activity against Escherichia coli incubated for overnight by microdilution method
Staphylococcus aureus [8] = experiment: Antibacterial activity against methicillin resistant Staphylococcus aureus MRSA090 at 75 ug/ml after 24 hrs by agar well diffusion method; conditions: MRSA090, 24 h, read-out: DIZ
Staphylococcus aureus [9] = experiment: Antibacterial activity against methicillin resistant Staphylococcus aureus MRSA090 at 50 ug/ml after 24 hrs by agar well diffusion method; conditions: MRSA090, 24 h, read-out: DIZ
Fusarium verticillioides [10] = experiment: Antifungal activity against Fusarium moniliforme at 75 ug/ml after 48 hrs by agar well diffusion method; conditions: read-out: DIZ
Klebsiella pneumoniae [11] = experiment: Antibacterial activity against Klebsiella pneumoniae at 50 ug/ml after 24 hrs by agar well diffusion method; conditions: read-out: DIZ
Aspergillus niger [12] = experiment: Antifungal activity against Aspergillus niger at 50 ug/ml after 48 hrs by agar well diffusion method
Escherichia coli [13] = experiment: Antibacterial activity against Escherichia coli at 100 ug/ml after 24 hrs by agar well diffusion method; conditions: read-out: DIZ
Staphylococcus aureus [14] = experiment: Antibacterial activity against Staphylococcus aureus at 50 ug/ml after 24 hrs by agar well diffusion method; conditions: read-out: DIZ
Aspergillus niger [15] = experiment: Antifungal activity against Aspergillus niger at 75 ug/ml after 48 hrs by agar well diffusion method
Fusarium oxysporum [16] = experiment: Antifungal activity against Fusarium oxysporum at 50 ug/ml after 48 hrs by agar well diffusion method
Escherichia coli [17] = experiment: Antibacterial activity against Escherichia coli at 50 ug/ml after 24 hrs by agar well diffusion method; conditions: read-out: DIZ
Klebsiella pneumoniae [18] = experiment: Antibacterial activity against Klebsiella pneumoniae at 100 ug/ml after 24 hrs by agar well diffusion method; conditions: read-out: DIZ
Staphylococcus aureus [19] = experiment: Antibacterial activity against Staphylococcus aureus at 75 ug/ml after 24 hrs by agar well diffusion method; conditions: read-out: DIZ
Fusarium verticillioides [20] = experiment: Antifungal activity against Fusarium moniliforme at 50 ug/ml after 48 hrs by agar well diffusion method; conditions: read-out: DIZ
Staphylococcus aureus [21] = experiment: Antibacterial activity against Staphylococcus aureus at 25 ug/ml after 24 hrs by agar well diffusion method; conditions: read-out: DIZ
Klebsiella pneumoniae [22] = experiment: Antibacterial activity against Klebsiella pneumoniae at 25 ug/ml after 24 hrs by agar well diffusion method; conditions: read-out: DIZ
Bacillus subtilis [23] = experiment: Antibacterial activity against Bacillus subtilis at 100 ug/ml after 24 hrs by agar well diffusion method; conditions: read-out: DIZ
Fusarium oxysporum [24] = experiment: Antifungal activity against Fusarium oxysporum at 25 ug/ml after 48 hrs by agar well diffusion method
Fusarium oxysporum [25] = experiment: Antifungal activity against Fusarium oxysporum at 100 ug/ml after 48 hrs by agar well diffusion method
Fusarium oxysporum [26] = experiment: Antifungal activity against Fusarium oxysporum at 75 ug/ml after 48 hrs by agar well diffusion method
Aspergillus niger [27] = experiment: Antifungal activity against Aspergillus niger at 100 ug/ml after 48 hrs by agar well diffusion method
Staphylococcus aureus [28] = experiment: Antibacterial activity against Staphylococcus aureus at 100 ug/ml after 24 hrs by agar well diffusion method; conditions: read-out: DIZ
Escherichia coli [29] = experiment: Antibacterial activity against Escherichia coli at 75 ug/ml after 24 hrs by agar well diffusion method; conditions: read-out: DIZ
Fusarium verticillioides [30] = experiment: Antifungal activity against Fusarium moniliforme at 100 ug/ml after 48 hrs by agar well diffusion method; conditions: read-out: DIZ
Bacillus subtilis [31] = experiment: Antibacterial activity against Bacillus subtilis at 75 ug/ml after 24 hrs by agar well diffusion method; conditions: read-out: DIZ
Escherichia coli [32] = experiment: Antibacterial activity against Escherichia coli at 25 ug/ml after 24 hrs by agar well diffusion method; conditions: read-out: DIZ
Klebsiella pneumoniae [33] = experiment: Antibacterial activity against Klebsiella pneumoniae at 75 ug/ml after 24 hrs by agar well diffusion method; conditions: read-out: DIZ
Fusarium verticillioides [34] = experiment: Antifungal activity against Fusarium moniliforme at 25 ug/ml after 48 hrs by agar well diffusion method; conditions: read-out: DIZ
Bacillus subtilis [35] = experiment: Antibacterial activity against Bacillus subtilis at 50 ug/ml after 24 hrs by agar well diffusion method; conditions: read-out: DIZ
Bacillus subtilis [36] = experiment: Antibacterial activity against Bacillus subtilis at 25 ug/ml after 24 hrs by agar well diffusion method; conditions: read-out: DIZ
Aspergillus niger [37] = experiment: Antifungal activity against Aspergillus niger at 25 ug/ml after 48 hrs by agar well diffusion method

Structure (SMILES)	MIC (Klebsiella pneumoniae [1]) [µg/mL]	zone of inhibition at 25 µg/mL (Staphylococcus aureus [2]) [mm]	MIC (Bacillus subtilis [3]) [µg/mL]	MIC (Staphylococcus aureus [4]) [µg/mL]	zone of inhibition at 100 µg/mL (Staphylococcus aureus [5]) [mm]	MIC (Staphylococcus aureus [6]) [µg/mL]	MIC (Escherichia coli [7]) [µg/mL]	zone of inhibition at 75 µg/mL (Staphylococcus aureus [8]) [mm]	zone of inhibition at 50 µg/mL (Staphylococcus aureus [9]) [mm]	zone of inhibition at 50 µg/mL (Klebsiella pneumoniae [11]) [mm]	zone of inhibition at 100 µg/mL (Escherichia coli [13]) [mm]	zone of inhibition at 50 µg/mL (Staphylococcus aureus [14]) [mm]	zone of inhibition at 50 µg/mL (Escherichia coli [17]) [mm]	zone of inhibition at 100 µg/mL (Klebsiella pneumoniae [18]) [mm]	zone of inhibition at 75 µg/mL (Staphylococcus aureus [19]) [mm]	zone of inhibition at 25 µg/mL (Staphylococcus aureus [21]) [mm]	zone of inhibition at 25 µg/mL (Klebsiella pneumoniae [22]) [mm]	zone of inhibition at 100 µg/mL (Bacillus subtilis [23]) [mm]	zone of inhibition at 100 µg/mL (Staphylococcus aureus [28]) [mm]	zone of inhibition at 75 µg/mL (Escherichia coli [29]) [mm]	also measured
CO[C@H]1/C=C/O[C@@]2(C)Oc3c(C)c(O)c4c(O)c(c(/C=N/N5CCN(C)CC5)c(O)c4c3C2=O)NC(=O)/C(C)=C\C=C\[C@H](C)[C@H](O)[C@@H](C)[C@@H](O)[C@@H](C)[C@H](OC(C)=O)[C@@H]1C [RIFAMPIN]	22 (≈ 26.7 µM)	23	21 (≈ 25.5 µM)	22 (≈ 26.7 µM)	33	21 (≈ 25.5 µM)	22 (≈ 26.7 µM)	30	27												
Cc1cccc2nc(N/N=C/c3ccc(O)cc3)sc12		14	26 (≈ 91.8 µM)	30 (≈ 106 µM)	24	28 (≈ 98.8 µM)	25 (≈ 88.2 µM)	21	17	17	25	16	19	26	20	10	14	21	23	22	zone of inhibition at 75 µg/mL (Fusarium verticillioides [10]): 13 mm; diameter of the inhibition zone (DIZ) (Aspergillus niger [12]): inactive; diameter of the inhibition zone (DIZ) (Aspergillus niger [15]): inactive; diameter of the inhibition zone (DIZ) (Fusarium oxysporum [16]): inactive; zone of inhibition at 50 µg/mL (Fusarium verticillioides [20]): 10 mm; diameter of the inhibition zone (DIZ) (Fusarium oxysporum [24]): inactive; diameter of the inhibition zone (DIZ) (Fusarium oxysporum [25]): inactive; diameter of the inhibition zone (DIZ) (Fusarium oxysporum [26]): inactive; diameter of the inhibition zone (DIZ) (Aspergillus niger [27]): inactive; zone of inhibition at 100 µg/mL (Fusarium verticillioides [30]): 17 mm; zone of inhibition at 75 µg/mL (Bacillus subtilis [31]): 18 mm; zone of inhibition at 25 µg/mL (Escherichia coli [32]): 17 mm; zone of inhibition at 75 µg/mL (Klebsiella pneumoniae [33]): 22 mm; zone of inhibition at 25 µg/mL (Fusarium verticillioides [34]): 8 mm; zone of inhibition at 50 µg/mL (Bacillus subtilis [35]): 14 mm; zone of inhibition at 25 µg/mL (Bacillus subtilis [36]): 11 mm; diameter of the inhibition zone (DIZ) (Aspergillus niger [37]): inactive
O=C(N[C@H](CO)[C@H](O)c1ccc([N+](=O)[O-])cc1)C(Cl)Cl [CHLORAMPHENICOL]	28 (≈ 86.7 µM)	19	27 (≈ 83.6 µM)	25 (≈ 77.4 µM)	31	27 (≈ 83.6 µM)	25 (≈ 77.4 µM)	27	22	29	38	28	27	36	34	24	24	34	37	32	zone of inhibition at 75 µg/mL (Bacillus subtilis [31]): 31 mm; zone of inhibition at 25 µg/mL (Escherichia coli [32]): 23 mm; zone of inhibition at 75 µg/mL (Klebsiella pneumoniae [33]): 33 mm; zone of inhibition at 50 µg/mL (Bacillus subtilis [35]): 25 mm; zone of inhibition at 25 µg/mL (Bacillus subtilis [36]): 21 mm

Reference: ChEMBL document CHEMBL4020788, “Synthesis, SAR and molecular docking studies of benzo[d]thiazole-hydrazones as potential antibacterial and antifungal agents” (2017)
